The source of these data is US9827219B2, “Compositions and methods for lowering levels of high-sensitivity C-reactive protein (HS-CRP) in a subject” (priority 2012, dated 2017).

Holding throughout (format): in vivo, human
Series [1] relates to Lp-PLA2. Put plainly: ANCHOR study, Lp-PLA2. Conditions: ANCHOR ITT, week 12. The source says:
(§1) Parameters (a)-(y) can be measured in accordance with any clinically acceptable methodology. For example, triglycerides, total cholesterol, HDL-C and fasting blood sugar can be sample from serum and analyzed using standard photometry techniques. VLDL-TG, LDL-C and VLDL-C can be calculated or determined using serum lipoprotein fractionation by preparative ultracentrifugation and subsequent quantitative analysis by refractometry or by analytic ultracentrifugal methodology. Apo A1, Apo B and hsCRP can be determined from serum using standard nephelometry techniques. Lipoprotein (a) can be determined from serum using standard turbidimetric immunoassay techniques. LDL particle number and particle size can be determined using nuclear magnetic resonance (NMR) spectrometry. Remnants lipoproteins and LDL-phospholipase A2 can be determined from EDTA plasma or serum and serum, respectively, using enzymatic immunoseparation techniques. Oxidized LDL, intercellular adhesion molecule-1 and interleukin-2 levels can be determined from serum using standard enzyme immunoassay techniques. These techniques are described in detail in standard textbooks, for example Tietz Fundamentals of Clinical Chemistry, 6th Ed. (Burtis, Ashwood and Borter Eds.), WB Saunders Company.
A multi-center, placebo-controlled, randomized, double-blind, 12-week study was performed to evaluate the efficacy and safety of >96% E-EPA in patients with fasting triglyceride levels ≧200 mg/dl and <500 mg/dl despite statin therapy (the mean of two qualifying entry values needed to be ≧185 mg/dl and at least one of the values needs to be ≧200 mg/dl). The primary objective of the study was to determine the efficacy of >96% E-EPA 2 g daily and 4 g daily, compared to placebo, in lowering fasting TG levels in patients with high risk for cardiovascular disease and with fasting TG levels ≧200 mg/dL and <500 mg/dL, despite treatment to LDL-C goal on statin therapy. […]

The nature of series [2]: Safety and tolerability (adverse events), AAMI pilot study (Example 1). Conditions: for TEAE Probably Related to the study drug: one subject. The protocol:
All randomized subjects that received at least 1 dose of study medication were included in the Safety Population.
Safety evaluations were based on the safety population. Safety and tolerability were assessed in terms of AEs, vital signs, 12-lead ECG, clinical laboratory data, medical history, and study drug compliance. Safety and tolerability data were presented by treatment group.

Series [3] concerns hsCRP. Kind of series: hsCRP in patients with diabetes mellitus-2 (Example 2). The settings on record: 4 g/day, 12 weeks, on statin.
Source text: as §1
The effect of >96% E-EPA on lipid and inflammatory parameters was evaluated in patients with fasting triglyceride levels ≧150 mg/dl and <499 mg/dl on concomitant statin therapy. Patients with diabetes mellitus-2 were randomized and treated with either 2 g/day >96% E-EPA, 4 g/day >96%, or placebo for twelve weeks. At the end of the treatment period, several diabetes efficacy endpoints were evaluated including, TG, LDL-C, non-HDL-C, VLDL-C, Lp-PLA2, Apo B, TC, HDL-C, VLDL-TG, hs-CRP, oxLDL, and RLP-C.

The test system of series [4] is Apo B. Put plainly: Apo B in patients with diabetes mellitus-2 (Example 2). The settings on record: 4 g/day, 12 weeks, on statin.
Source text: as §1, with “(Burtis, Ashwood and Borter Eds.), WB Saunders Company.” left out
The effect of >96% E-EPA on lipid and inflammatory parameters was evaluated in patients with fasting triglyceride levels ≧150 mg/dl and <499 mg/dl on concomitant statin therapy. […]

The mark [5] stands for this setting: well-controlled diabetes (HbA1c < median of 6.8%).

For the molecule `CC/C=C\C/C=C\C/C=C\C/C=C\C/C=C\CCCC(=O)OCC` [AMR101, all-cis eicosa-5,8,11,14,17-pentaenoic acid ethyl ester], the “Lp-PLA2 change from baseline (median)” value in series [1] (2 g/day) is −1.8%; in series [1] (4 g/day), −12.8%. Besides, the “Lp-PLA2 end-of-treatment value (median)” value in series [1] (4 g/day) is 160.0 ng/mL. In addition, the “Subjects with nausea Possibly Related to the study drug” value is reported as “two” in series [2] (1 g cohort), “one” in series [2] (2 g cohort) and “two” in series [2] (4 g cohort). In addition, the entries for the “TEAE Probably Related to the study drug” value in series [2] (1 g) and in series [2] (4 g) were “nausea” and “diarrhea”, respectively. Also, the SAE reported entry in series [2] (2 g treatment group) is “One”. For the same molecule, the “Subjects discontinued due to TEAEs” value in series [2] (2 g treatment group) was determined as 2 subjects. For the same molecule, the “Deaths during the study” value in series [2] (all groups) was “no deaths”. Further, in series [2] (all groups), the “TEAEs Definitely Related to the study drug” value is listed as “No TEAEs were Definitely Related”. For the same molecule, the “Treatment emergent AEs (TEAEs) reported” value in series [2] (ethyl-EPA treatment groups (1, 2, 4 g), 6 weeks, placebo groups 34 events) is recorded as 105 events. In addition, in series [2] (one subject receiving 2 g), the “Relatedness of the SAE (worsening epigastric chest pain)” value was “unrelated to the study drug”. The “Severity and relatedness of most TEAEs” value in series [2] (whole study) is “mild in severity and unrelated to study drug”. Moreover, the “Median placebo-adjusted percent change in hsCRP from baseline to study end” value in series [3] (less-controlled diabetes (HbA1c ≧ median of 6.8%)) is given as −34.6%; in series [3] (total diabetes) it was −21.5%; in series [3] (setting [5]) it was −4.0%. Also, the “Median placebo-adjusted percent change in Apo B from baseline to study end” value in series [4] (total diabetes) is given as −9.5%; in series [4] (setting [5]), −6.1%.
